A short description of series [1]: In vitro release of drugs from tablets (USP basket procedure, water, 100 rpm, 37° C.). It counts as physicochemical. To be noted: for constancy of release: PEO tablets of MW 0.9×10^6, 2×10^6, 4×10^6 (FIGS. 9-14); for effect of drug loading on release: PEO tablets, different drug loadings. How it is done: A set of tablet punches with flat surfaces were used to prepare tablets of various diameters, including 7 mm, 8.1 mm, 9.5 mm, and 11 mm. They were charged with the formulation, and the compression of 2000 to 4000 pounds was exerted by turning over the machine by hand.
In vitro release of drugs from the different formulation tablets was carried out by using the USP basket procedure in distilled/deionized water at a stirring rate of 100 rpm and 37° C., if not otherwise stated. Theophylline and diltiazem HCl were chosen as model drugs. The release of theophylline and diltiazem HCl was assayed by a HP.backslash.8252A (Hewlett Packard Corporation) diode-array spectrophotometer at 244 nm and 266 nm, respectively. The release kinetic data (up to 60% release) were treated by equation (1) above.
According to the criteria for release kinetics from a swellable matrix (cylindrical shape), zero-order and anomalous transport kinetics are represented by 0.89 <n<1.0 and 0.45<n<0.89, respectively. A linear regression analysis (Microsoft Excel 5.0) of the logarithmic form of equation (1) was carried out with R^2 ≥0.99.
A set of tablet punches with flat surfaces were used to prepare the tablets having diameters of 11.1 mm and weights of 550 mg except for the sulfathiazole tablets which were 9.5 mm in diameter and weighed 400 mg. All the tablets were compressed to 4000 pounds.
Similarly, FIGS. 10, 12 and 14 show particular drugs used for testing with their typical solubilities. A set of tablet punches with flat surfaces were used to prepare the tablets having diameters of 11.1 mm and weights of 550 mg except for the sulfathiazole tablets which were 9.5 mm in diameter and weighed 400 mg. The tablets were compressed to 4000 pounds.
A set of tablet punches with flat surfaces were used to prepare the tablets having diameters of 11.1 mm and weights of 550 mg except for the sulfathiazole tablets, which were 9.5 mm in diameter and weighed 400 mg. All the tablets were compressed to 4000 pounds per square inch.

For series [2] the following is noted: cited from earlier work.
Setting [3] is: PEO MW 4×10^6, 20% drug loading.
Setting [4] is: PEO MW 4×10^6, 39% drug loading.

The source of these data is patent US5945125A, “Controlled release tablet” (Temple University, priority 1996, dated 1999).

SMILES strings stand for the structures. In brackets after ≈: the same amount, converted by molar mass. Entries after “also recorded” stand apart in the source; their conditions may differ. Where a name gives a salt, the structure may show the parent alone. Read-outs that look alike come from different tables or passages of the source.

As to `Nc1ccc(S(=O)(=O)Nc2ncccn2)cc1` [sulfadiazine], in series [1], the constancy of release result is listed as “most constant release over the longest period of time”.
As to `COc1ccc([C@@H]2Sc3ccccc3N(CCN(C)C)C(=O)[C@@H]2OC(C)=O)cc1` [diltiazem HCl, diltiazem hydrochloride], in series [2] (in water), the solubility is more than 50%.
With `O=C(O)c1ccccc1O` [salicylic acid], the “release at which profiles from 20% and 39% loaded tablets cross” value in series [1] (PEO MW 2×10^6 (FIG. 31)) is given as “about 50%”. In addition, the “release kinetics exponent n” value in series [1] (setting [3]) was 0.72; in series [1] (setting [4]) it was 0.81. Moreover, in series [1], the constancy of release result is reported as “Constant release rates over the longest period of time”.
`O=C(O)Cc1ccccc1Nc1c(Cl)cccc1Cl` [diclofenac sodium]: the “n (release kinetics exponent)” value in series [1] (PEO MW 0.9×10^6, 20% drug loading (FIG. 31)) turned out to be 0.93. Moreover, the “effect of lactose on release kinetics” value in series [1] (PEO MW 4×10^6, 39% drug vs 20% drug and 19% lactose, same total weight (FIG. 6)) is “superimposable (except for the final stage of release); also recorded: superimposable (except in the final stage of release)”. Also, in series [1], the constancy of release result is on record as “least constant release; also recorded: constant or near constant release kinetics” and the “effect of drug loading on release” value was “did not significantly change”.
On to `Nc1ccc(S(=O)(=O)Nc2ccccn2)cc1` [sulfapyridine], for which, in series [1] (PEO MW 4×10^6 (FIG. 14)), the period of release entry is recorded as “relatively short” and the “release kinetics exponent n” value is on record as 1.10. In series [1] (PEO tablets (FIG. 31)), the “effect of 39% versus 20% drug loading on release profile” value is “shifted to the left of the release profiles from 20% loaded tablets”.
For `Nc1ccc(S(=O)(=O)Nc2nccs2)cc1` [sulfathiazole], the “release at which profiles from 20% and 39% loaded tablets cross” value in series [1] (PEO MW 4×10^6 (FIG. 31)) is on record as “about 50%”. Further, the figures for the “release kinetics exponent n” value in series [1] (setting [3]) and in series [1] (setting [4]) were 0.78 and 0.94, respectively. Moreover, in series [1] (PEO tablets (FIGS. 10, 12, 14)), the “shape of release profile” value is “slightly sigmoidal profile”. In addition, in series [1], the constancy of release entry is recorded as “Constant release rates over the longest period of time”. In series [2], the solubility was 590 mg/L (≈ 2310 µM).
Turning to `Cn1c(=O)c2[nH]cnc2n(C)c1=O` [theophylline], the results for the “release exponent (n)” value in series [1] (PEO MW 0.9×10^6 tablet (FIG. 2)), in series [1] (PEO MW 2×10^6 tablet (FIG. 2)) and in series [1] (PEO MW 4×10^6 tablet (FIG. 2)) were 0.99 (±0.024), 0.80 (±0.004) and 0.83 (±0.019), respectively. The “effect of pH of dissolution medium on release” value in series [1] (PEO tablets (FIG. 3)) is recorded as “not significantly influenced by the pH variation”. The constancy of release result in series [1] is reported as “least constant release; also recorded: constant or near constant release kinetics”. In series [1], the “effect of drug loading on release” value was “superimposed”. Also, the solubility in series [2] (in water) was less than 1.0%.
